Patent US20240117405A1, “COLORIMETRIC BIOSENSOR, PREPARATION METHOD THEREOF, AND ANTIBIOTIC SUSCEPTIBILITY TESTING METHOD USING THE SAME” (INHA UNIVERSITY RESEARCH AND BUSINESS FOUNDATION, priority 2022, published 2024)

System: methicillin-resistant Staphylococcus Aureus (MRSA)
Assay: Antibiotic susceptibility test using encapsulated colorimetric biosensor
Format: cell-based
Settings: MRSA 10^6 CFU/mL, 37° C.; for time until color change (blue->red) of the colorimetric biosensor: photographed up to 15 hours
Procedure: An antibiotic susceptibility test was performed on the colorimetric biosensor in encapsulated form prepared in Example 1, and the results are shown in FIG. 5.
Specifically, an encapsulated colorimetric biosensor was prepared from Example 1 and introduced into wells containing 2 and 4 μg/mL of ampicillin antibiotics (See FIGS. 5B and 5C) and 0.25, 2 and 4 μg/mL of vancomycin antibiotics (See FIGS. 5D, 5E, and 5F). Further, for the antibiotic susceptibility test, methicillin-resistant Staphylococcus Aureus (MRSA) bacteria, which are resistant to ampicillin and susceptible to vancomycin, were injected into each well at an amount of 10^6 CFU/mL. For comparative experiments, wells containing only the colorimetric biosensor and bacteria (See FIG. 5A) and wells containing only the colorimetric biosensor (See FIG. 5G) were also prepared. In order to induce the growth of MRSA and the color change of the biosensor accordingly, they were cultured at a temperature of 37° C., and each well plate was photographed at 0, 5, 6, 7, 9, 12, 13 and 15 hours to compare the color change.

| Structure (SMILES) | time until color change (blue->red) of the colorimetric biosensor (0.25 μg/mL antibiotic) [h] | time until color change (blue->red) of the colorimetric biosensor (2 μg/mL antibiotic) | time until color change (blue->red) of the colorimetric biosensor (4 μg/mL antibiotic) | susceptibility or resistance of MRSA to the antibiotic as determined by biosensor color change | concentration from which MRSA shows susceptibility (no color change) (tested 0.25, 2 and 4 μg/mL) [µg/mL] |
| --- | --- | --- | --- | --- | --- |
| CN[C@H](CC(C)C)C(=O)N[C@H]1C(=O)N[C@@H](CC(N)=O)C(=O)N[C@H]2C(=O)N[C@H]3C(=O)N[C@H](C(=O)N[C@H](C(=O)O)c4cc(O)cc(O)c4-c4cc3ccc4O)[C@H](O)c3ccc(c(Cl)c3)Oc3cc2cc(c3O[C@@H]2O[C@H](CO)[C@@H](O)[C@H](O)[C@H]2O[C@H]2C[C@](C)(N)[C@H](O)[C@H](C)O2)Oc2ccc(cc2Cl)[C@H]1O [vancomycin] | 9 | no color change was observed | no color change was observed | susceptibility | 2 |
| CC1(C)S[C@@H]2[C@H](NC(=O)[C@H](N)c3ccccc3)C(=O)N2[C@H]1C(=O)O [ampicillin] | – | 9 h | 13 h | resistance | – |
